For 15 compounds, GI50 and TGI results are on record in PubChem BioAssay (NCI).

Holding throughout (assay): NCI-60 cell line screen, 48 h
The subject of experiment [1] is EKVX NSCLC.
In experiment [2] the test system is OVCAR-8 ovarian.
The test system of experiment [3] is HS 578T breast.
In experiment [4] the test system is LOX IMVI melanoma.
Experiment [5] has as its system SR leukemia.
Experiment [6] has as its system SNB-75 CNS.
For experiment [7], the system named is K-562 leukemia.
In experiment [8] the test system is NCI/ADR-RES ovarian.
Experiment [9] relates to UACC-257 melanoma.
In experiment [10] the test system is HCT-116 colon.

Where “and” joins values, the source holds several entries; their conditions need not be identical. Equal values may be shown once.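 48-hour exposure; five concentrations; linearly interpolated endpoints. GI50 = concentration required for 50% inhibition of growth. TGI marks complete inhibition of growth.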 Some results are limits rather than exact numbers.

On to `CCN(CC)CCCC(CCl)Nc1ccnc2cc(Cl)ccc12` (configuration not stated), for which the GI50 was 30.4 µM and 29.1 µM in experiment [1]; 20.2 µM and 19.4 µM in [2]; 17.3 µM and 18.1 µM in experiment [3]; 8.43 µM and 8.53 µM in [4]; 0.421 µM in experiment [5]; 26.1 µM and 29.5 µM in experiment [6]. In addition, the GI50 in experiment [7] was 3.42 µM and 3.99 µM; in [8], 25.2 µM and 23.1 µM; in experiment [9], 3.78 µM and 14.6 µM; in experiment [10] it was 9.81 µM and 6.94 µM. For the same compound, the TGI in [1] was 87.2 µM and > 100 µM; in [2], 54.8 µM and 71.3 µM; in [3] it was 42.5 µM and 44.3 µM; in experiment [4], 42.3 µM and 31.4 µM; in experiment [5] it was 3.25 µM; in experiment [6] it was 59.2 µM and > 73.6 µM. Also, the TGI in [7] was 15.7 µM; in experiment [8], 57.3 µM and 67.7 µM; in experiment [9], 15.3 µM and 31.1 µM; in [10], 25.2 µM and 30.4 µM.

Consider `COc1ccc2c(c1)C(=O)/C(=C/c1cccc(OCC(=O)c3ccccc3)c1)O2`, for which the GI50 in experiment [1] is 9.88 µM; in experiment [2], 16.4 µM; in [3], 13.8 µM; in experiment [4], 2.83 µM; in [5] it was 1.47 µM; in [6], 10.7 µM. Besides, the GI50 is 0.722 µM in experiment [7], 8.9 µM in [8], 18.8 µM in experiment [9] and 1.53 µM in experiment [10]. In addition, the TGI in experiment [1] stood at 29.1 µM; in [2], 31.4 µM; in [3], 48.1 µM; in [4], 9.54 µM; in experiment [5], 3.26 µM; in experiment [6], 22.9 µM. The TGI in experiment [7] is 2.13 µM; in [8] it was 26.4 µM; in [9], 33.5 µM; in experiment [10], 2.96 µM.

Regarding `CC/C=C\C[C@H]1CC=C2C(=O)C=C[C@@H]2CC=CCCCC(=O)O[C@@H](CCCCC)CC=C2C(=O)C=C[C@@H]2CC=CCCCC(=O)O[C@@H](CCCCC)CC=C2C(=O)C=C[C@@H]2CC=CCCCC(=O)O[C@@H](CCCCC)CC=C2C(=O)C=C[C@@H]2CC=CCCCC(=O)O1`, the GI50 was 2.41 µM in experiment [1]; 2.29 µM in experiment [2]; 2.68 µM in experiment [3]; 1.22 µM in experiment [4]; 1.58 µM in [5]; 3.8 µM in [6]. In addition, the GI50 in experiment [7] was 2.5 µM; in [8], above 7.9 µM; in experiment [9], 2.95 µM; in experiment [10], 1.3 µM. The TGI in experiment [1] is above 7.9 µM; in [2], above 7.9 µM; in experiment [3], above 7.9 µM; in experiment [4], 2.47 µM; in experiment [5] it was above 7.9 µM; in experiment [6], above 7.9 µM. Besides, the TGI was above 7.9 µM in [7], above 7.9 µM in experiment [8], above 7.9 µM in experiment [9] and 3.06 µM in experiment [10].

For `Cc1ccc(S(=O)(=O)N=Nc2c(O)[nH]c3cc(O)c(C(=O)O)cc23)cc1`, the TGI in experiment [1], in experiment [2], in [3], in experiment [4], in experiment [5] and in experiment [6] was above 100 µM throughout. In addition, the TGI in [7], in [8], in experiment [9] and in [10] was above 100 µM throughout.

As for `O=C(O)c1ccc(CN2CCC(CN[C@@H]3C[C@H]3c3ccccc3)CC2)cc1`, the GI50 in [1], in experiment [2], in experiment [3], in [4], in experiment [5] and in experiment [6] was above 100 µM throughout. Besides, the GI50 in experiment [7], in experiment [8], in experiment [9] and in experiment [10] was above 100 µM throughout. For the same compound, the TGI in [1], in [2], in [3], in experiment [4], in [5] and in experiment [6] was above 100 µM in each case. Moreover, the TGI in experiment [7], in experiment [8], in [9] and in experiment [10] was above 100 µM in each case.

In the case of `O=C1C=CC(=O)C2C1C1(Cl)C(Cl)=C(Cl)C2(Cl)C1(Cl)Cl` (configuration not stated), the GI50 is 1.56 µM in experiment [1]; 10.1 µM in [2]; 2.51 µM in experiment [3]; 4.05 µM in [4]; 2.53 µM in [5]; 1.13 µM in [6]. In addition, the GI50 is 2.58 µM in experiment [7], 3.75 µM in experiment [8], 6.82 µM in experiment [9] and 3.51 µM in experiment [10]. Moreover, the TGI in experiment [1] worked out at 7.48 µM; in experiment [2] it was 48.6 µM; in experiment [3], 7.92 µM; in experiment [4], 16.2 µM; in experiment [5], 12.3 µM; in experiment [6] it was 5.48 µM. Also, the TGI in experiment [7] is 10.8 µM; in experiment [8], above 100 µM; in experiment [9], 20 µM; in experiment [10], 14.6 µM.

Regarding `C=CC(=O)N1CCC(Oc2cc3c(Nc4ccc(Cl)c(Cl)c4F)ncnc3cc2OC)CC1`, the GI50 in experiment [1] was below 0.001 µM; in experiment [2], 4.52 µM and 1.91 µM; in [3], 3.61 µM and 1.74 µM; in [4], 1.55 µM and 1.2 µM; in [5] it was 2.27 µM and 2.8 µM; in experiment [6], 1.07 µM and 0.48 µM. The GI50 was 3.98 µM and 2.68 µM in [7]; 1.43 µM and 1.41 µM in experiment [8]; 11.5 µM and 6.67 µM in experiment [9]; 5.28 µM and 3.72 µM in [10]. For the same compound, the TGI was 17.2 µM and > 10 µM in [1]; 28.6 µM and > 10 µM in experiment [2]; 44.1 µM and 8.16 µM in experiment [3]; 5.73 µM and 2.84 µM in [4]; 10.9 µM and > 10 µM in experiment [5]; 13.7 µM and 4.4 µM in experiment [6]. Also, the TGI in experiment [7] is above 100 µM; in experiment [8] it was 10.3 µM and > 9.25 µM; in [9], 31.7 µM and > 10 µM; in experiment [10], 18.9 µM and > 10 µM.

In the case of `O=C(O)CCCc1ccc2ccc3ccccc3c2c1`, the TGI in experiment [1] is above 100 µM; in experiment [2] it was above 100 µM; in experiment [3], above 100 µM; in [4], above 100 µM; in experiment [5] it was above 100 µM; in [6], 87.4 µM. For the same compound, the TGI in experiment [7], in [8], in experiment [9] and in experiment [10] was above 100 µM each time.

Consider `CC(=O)OC1OC([C@H]2c3cccc(O)c3C(=O)c3c(O)cc(C)cc32)C(O)C(O)C1O` (some centres not stated), for which the GI50 in experiment [1] is 0.198 µM; in experiment [2], 0.0294 µM; in experiment [4], below 0.0146 µM; in [5], 0.0308 µM; in experiment [6], 0.0297 µM; in experiment [7], 0.203 µM. The GI50 in experiment [8] was 0.0383 µM; in experiment [9] it was below 0.0139 µM; in experiment [10] it was below 0.01 µM. For the same compound, the TGI in experiment [1] was 3.04 µM; in experiment [2] it was 0.0873 µM; in [3] it was 0.728 µM; in experiment [4] it was below 0.0251 µM; in experiment [5], 0.119 µM; in [6] it was 2.74 µM. Also, the TGI in experiment [7] is above 33.5 µM; in experiment [8] it was 5.95 µM; in experiment [10], 1.18 µM.

For `COc1cccc2c1C(=N)c1c(O)c3c(c(O)c1C2=O)C[C@@](O)(C(C)=O)C[C@@H]3O[C@H]1C[C@H](N)[C@H](O)[C@H](C)O1`, the GI50 was 2.53 µM in experiment [1]; 0.327 µM in [2]; 1.66 µM in [3]; 0.178 µM in experiment [4]; 0.0217 µM in experiment [5]; 0.159 µM in experiment [6]. In addition, the GI50 in experiment [7] was 0.322 µM; in experiment [8] it was 45.3 µM; in experiment [9] it was 1.34 µM; in experiment [10] it was 0.277 µM. The TGI came to 12.6 µM in experiment [1]; 1.95 µM in experiment [2]; 8.31 µM in [3]; 1.49 µM in experiment [4]; 6.08 µM in experiment [5]; 2.08 µM in experiment [6]. In addition, the TGI was 10.9 µM in experiment [7], above 100 µM in [8], 8.99 µM in [9] and 6.6 µM in experiment [10].

With `Cc1cn(-c2cc(NC(=O)c3cccc(C#Cc4cccc5[nH]nc(N)c45)c3)cc(C(F)(F)F)c2)cn1`, the GI50 in experiment [1] is 7.38 µM; in [2], 4.99 µM; in experiment [3], 2.86 µM; in [4], 2.87 µM; in [5], 5.06 µM; in experiment [6], 2.19 µM. Further, the GI50 in [8] was 13.5 µM; in experiment [9], 6.59 µM; in experiment [10] it was 2.62 µM. Further, the TGI was above 100 µM in experiment [1]; 36.3 µM in experiment [2]; 42.2 µM in experiment [3]; above 100 µM in [4]; above 100 µM in experiment [5]; 9.02 µM in experiment [6]. In addition, the TGI is above 100 µM in [7], above 100 µM in [8], 78.3 µM in experiment [9] and 18.8 µM in [10].

Turning to `CN(C)CCC(=O)N1C/C(=C\c2ccc(Cl)c(Cl)c2)C(=O)/C(=C/c2ccc(Cl)c(Cl)c2)C1`, the TGI in [1] stood at 1.53 µM; in experiment [2], 0.752 µM; in [3], 1.73 µM; in experiment [4], 0.278 µM; in experiment [5], 9.84 µM; in experiment [6] it was 1.3 µM. Besides, the TGI in [7] amounted to 0.572 µM; in [8], 1.06 µM; in [9], 2.53 µM; in [10], 0.331 µM.

For `CN(C)Cc1cc(C(F)(F)F)ccc1C(O)(c1ccccc1)c1ccccc1`, the TGI in [1] is 29.6 µM; in experiment [2], 35.8 µM; in [3] it was above 100 µM; in experiment [4] it was 31.8 µM; in experiment [5], 28 µM; in experiment [6], 21.8 µM. The TGI in experiment [7] came to 24.4 µM; in [8], 30.4 µM; in experiment [9], 24 µM; in experiment [10], 26.8 µM.

Regarding `O=C(NC(=O)c1c(F)cccc1F)Nc1cccc(Oc2ncc(Cl)cn2)c1`, the TGI is above 100 µM in experiment [1]; above 100 µM in experiment [2]; above 92.1 µM in experiment [3]; above 100 µM in [4]; above 73.8 µM in experiment [5]; 60.3 µM in experiment [6]. Moreover, the TGI in [7], in experiment [8], in [9] and in experiment [10] was above 100 µM in each case.

On to `CSC(SC)(C(=O)O)c1cc(-c2c(Cl)cccc2Cl)no1`, for which the TGI in [1], in experiment [2], in experiment [3], in [4], in experiment [5] and in experiment [6] was above 100 µM throughout. Further, the TGI in experiment [7], in experiment [8], in experiment [9] and in [10] was above 100 µM in each case.
